Consider six molecules from publication PMC9025336 (Antibiotics, 2022).

In general, Kd refers to a measure of binding affinity in units of concentration. As usually defined, the Ki is the equilibrium dissociation constant of an inhibitor or competing ligand from its target.

Converted amounts (≈) assume the structure as drawn. Where two headings read alike, the source gives them in different places. Square brackets hold non-standard residues; d marks the D form. Ends that are not written are not given here. Peptide text beside a SMILES is read from it.

In series [1] the test system is E. coli Rosetta DE3 pLysS. The series can be described thus: MIC, liquid broth microdilution. In kind it is cell-based, Escherichia coli. Conditions: 25% MHBII medium, 7.5 × 10^6 CFU/mL, 37 °C, 20 ± 2 h, turbidity 600 nm, at least twice in triplicate. The method, then:
(§1) The minimal inhibitory concentrations (MIC) were determined at least twice in triplicate using a liquid broth microdilution assay in sterile 96-well plates and a total volume of 100 μL per well. Aqueous peptide solutions were serially 2-fold diluted in 25% MHBII or 33% TSB medium in a volume of 50 µL. An overnight culture was diluted in 25% MHBII or 33% TSB medium to 1.5 × 10^7 CFU/mL, and an aliquot of 50 μL was added to each well. The final cell count in each well was 7.5 × 10^6 CFU/mL. The plates were incubated at 37 °C for 20 ± 2 h. The turbidity of each well was measured at a wavelength of 600 nm. The MIC was defined as the lowest peptide concentration where the turbidity was identical to medium only.
For orientation: Broth dilution looks for growth in wells or tubes with falling amounts of substance.

Series [2] has as its system E. coli BW25113. In kind it is cell-based, Escherichia coli. Conditions: BW25113, 2 h. The method, then:
as §1, with “The plates were incubated at 37 °C for 20 ± 2 h.” left out

For series [3], the system named is E. coli BL21 (DE3) RIL ribosome extract. Conditions: values published for E. coli BL21 (DE3) RIL ribosome extract; read-out: Kd (printed in column Ros); cited from earlier work. The source says:
Table 2 Antibacterial activities, dissociation (Kd), and inhibition constants (Ki) of ribosome binding obtained for all PrAMPs included in the current study for E. coli strains BW25113 (BW) and Rosetta DE3 pLysS (Ros). | column: Kd [µmol/L] ** / Ros

Series [4] has the same test system. As to conditions: values published for E. coli BL21 (DE3) RIL ribosome extract; read-out: Ki, cf-Api137; cited from earlier work.
Series [5] shares this test system. Conditions: values published for E. coli BL21 (DE3) RIL ribosome extract; read-out: Ki, cf-Onc112; cited from earlier work. The source says: Table 2 Antibacterial activities, dissociation (Kd), and inhibition constants (Ki) of ribosome binding obtained for all PrAMPs included in the current study for E. coli strains BW25113 (BW) and Rosetta DE3 pLysS (Ros). | column: Ki [µmol/L] *** / cf-Onc112

Series [6] relates to 70S ribosome extract of E. coli BW25113. The series can be described thus: Fluorescence polarization, Kd of cf-labeled peptides. In kind it is binding, Escherichia coli. As to conditions: determined for the cf-labeled peptide; BW25113 ribosome extract; 28 °C, 90 min; 95% confidence interval in brackets; triplicate on at least two days; read-out: Kd, BW. How it is done: (§2) E. coli BW25113 and E. coli Rosetta pLysS were cultivated in LB medium and harvested at an OD600 of ~4 by centrifugation (5000× g, 30 min, 4 °C). The cell pellets were washed by resuspension in ribosome preparation buffer (20 mmol/L Hepes-KOH, 6 mmol/L MgCl2, 30 mmol/L NH4Cl, pH 7.6, 4°C) and subsequent centrifugation (5000× g, 30 min, 4 °C). Cell pellets were suspended in ribosome preparation buffer ([…]) containing freshly added 2-mercapotethanol (4 mmol/L). Lysozyme was added to the resuspended cells and incubated on ice for 30 min. The cell suspension was disrupted six times using a FastPrep-24^TM 5G instrument (MP Biomedicals, Solon, OH, USA) with BigPrep 50 mL setting (40 s, 4.0 m/s), incubated with DNase I (5 mL/L) on ice for one hour and centrifuged (16,000× g, 30 min, 4 °C). The cell debris was removed from the supernatant by centrifugation (32,000× g, 60 min, 4 °C), and the supernatant was centrifuged again (165,000× g, 17 h, 4 °C). The pellet was resuspended in ribosome preparation buffer (0.1 mL per g cell pellet) to obtain the 70S ribosome extract and stored at −80 °C. The ribosome concentration was estimated by recording the absorbance at 260 nm (1 AU for a ribosome concentration of 28 nmol/L). The molecular weight of the 70S E. coli ribosome was assumed to be 2.3 MDa.
(§3) Kd was determined using a ribosome extract and cf-labeled peptides in ribosome preparation buffer. Briefly, black 384-well plates (flat bottom, Greiner Bio-One GmbH) were blocked with casein (0.5%, w/v) in phosphate buffer containing 0.05% (v/v) Tween 20 at 4 °C overnight and washed three times with phosphate buffer. A 2-fold dilution series of the ribosome extract (20 μL per well) in ribosome preparation buffer was prepared in a black 384-well plate (23 dilution steps). The cf-labeled peptide was dissolved in ribosome preparation buffer (20 μL, 40 nmol/L), added to each well, and incubated at 28 ± 1 °C. After 90 min, the fluorescence polarization was measured on a PARADIGMTM microplate reader (Beckman Coulter, Salzburg, Austria) in the top read position (λexc = 485 nm, λem = 535 nm) in triplicate on at least two different days. Data were fitted to a nonlinear, dose–response logistical transition equation [y= y0 + a/(1 + (x/x0)b)] using the Levenberg–Marquardt algorithm, with dissociation constants (Kd) represented by the x0 coefficients (GraphPad Prism for Windows v. 5.02, San Diego, CA, USA).
On the technique in general: Fluorescence polarisation rises when a labelled molecule tumbles more slowly, as on binding a larger partner.

Series [7] relates to 70S ribosome extract of E. coli Rosetta DE3 pLysS. Described as above. In kind it is binding, Escherichia coli. Conditions: determined for the cf-labeled peptide, 28 °C, 90 min, 95% confidence interval in brackets, triplicate on at least two days, read-out: Kd, Ros. How it is done:
as §2, §3

In series [8] the target is BW25113 ribosome extract, ribosomal binding site of Api137. The series can be described thus: Fluorescence polarization competition against cf-Api137 (Ki). Also noted: species or system Escherichia coli. As to conditions: unlabeled PrAMP against cf-labeled Api137, calculated from IC50, 95% confidence interval in brackets. The method, then: as §2
(§4) Ki was determined for ribosome extracts using cf-labeled and unlabeled peptides in ribosome preparation buffer. Black 384-well plates were prepared as described above. Unlabeled peptides or antibiotics (20 µL, 656 µmol/L) were added and 2-fold serially diluted in 23 wells in ribosome preparation buffer. A ribosome solution was prepared by adjusting the ribosome concentration to ~90% of the upper Kd plateau obtained for the cf-labeled peptide to be studied and added to each well (10 µL). […] The fluorescence polarization was measured on a PARADIGMTM microplate reader in the top read position (λexc = 485 nm, λem = 535 nm) in triplicate on at least two different days. […] Inhibition constants, Ki, were calculated as described by Mathias and Jung.

Series [9] has as its target BW25113 ribosome extract, ribosomal binding site of Onc112. Description: Fluorescence polarization competition against cf-Onc112 (Ki). Further details: species or system Escherichia coli. As to conditions: unlabeled PrAMP against cf-labeled Onc112, calculated from IC50, 95% confidence interval in brackets. The method, then: as §2, §4
The target in series [10] is 70S ribosome extract of E. coli BW25113 (E. coli BW25113 (endogenous)).
Series [11] shares this target. The series can be described thus: fluorescence polarisation; competition: unlabeled peptide (2-fold series from 656 µmol/L) pre-incubated with BW25113 ribosome extract (28 °C, 90 min), then cf-Api137 (10 µL, 80 nmol/L) added (28 °C, 90 min); ribosome preparation buffer; Ki calculated from IC50.
For series [12] the target is unchanged. The series can be described thus: fluorescence polarisation; competition: unlabeled peptide (2-fold series from 656 µmol/L) pre-incubated with BW25113 ribosome extract (28 °C, 90 min), then cf-Onc112 (10 µL, 80 nmol/L) added (28 °C, 90 min); ribosome preparation buffer; Ki calculated from IC50.
The nature of series [13]: lysates of E. coli BW25113. Conditions: E. coli BW25113, 37 °C, up to 24 h.
Series [14] can be described thus: lysates of E. coli Rosetta pLysS. Conditions: 37 °C, up to 24 h.
Series [15] concerns the target 70S ribosome extract of E. coli BW25113 (E. coli BW25113 (endogenous)). This is another data set of the same source.

With `CC[C@H](C)[C@H](NC(=O)[C@@H]1CCCN1C(=O)[C@H](CCCNC(=N)N)NC(=O)[C@@H]1CCCN1C(=O)[C@H](Cc1c[nH]cn1)NC(=O)[C@H](CO)NC(=O)[C@@H](NC(=O)[C@@H]1CCCN1C(=O)[C@H](CCCNC(=N)N)NC(=O)[C@@H]1CCCN1C(=O)[C@H](CO)NC(=O)[C@H](Cc1ccc(O)cc1)NC(=O)[C@@H]1CCCN1C(=O)[C@H](CCCNC(=N)N)NC(=O)[C@@H]1CCCN1C(=O)[C@H](CCCCN)NC(=O)CN)[C@@H](C)O)C(=O)N[C@@H](CCCNC(=N)N)C(=O)N[C@H](C(=O)O)C(C)C` [Drosocin] (H-GKPRPYSPRPTSHPRPIRV-OH; N-terminus assumed), the “MIC, Ros” value in [1] is listed as 8 µg/mL (≈ 3.64 µM). Besides, in series [2], the “MIC, BW” value is given as 128 µg/mL (≈ 58.2 µM). For the same molecule, the Kd in [3] was 1080 nM. The Ki in series [4] was 9 nM; in series [5] it was 1780 nM.
Regarding `CC[C@H](C)[C@H](NC(=O)[C@@H](CCCNC(=N)N)NC(=O)[C@H](CCCNC(=N)N)NC(=O)[C@@H]1CCCN1C(=O)[C@@H]1CCCN1C(=O)[C@H](CCCNC(=N)N)NC(=O)[C@@H]1CCCN1C(=O)[C@H](CCCNC(=N)N)NC(=O)[C@@H]1CCCN1C(=O)[C@H](CC(C)C)NC(=O)[C@H](Cc1ccc(O)cc1)NC(=O)[C@@H]1CCCN1C(=O)[C@@H]1CCCN1C(=O)[C@H](CCCCN)NC(=O)[C@H](CC(=O)O)NC(=O)[C@@H](N)C(C)C)C(=O)N[C@@H](Cc1ccc(O)cc1)C(=O)N[C@@H](CC(N)=O)C(=O)N[C@H](CCCNC(=N)N)C(N)=O` [Onc112] (H-VDKPPYLPRPRPPR[dR]IYN[dR]-NH2), in series [1], the “MIC, Ros” value amounted to 4 µg/mL (≈ 1.67 µM). The Kd came out at 27 nM in [6] and 51 nM in [7]. Also, the Ki in series [8] was 606 nM; in series [9], 8 nM. In addition, the “MIC, BW” value in series [2] is 4 µg/mL (≈ 1.67 µM).
In series [10], Api137 (peptide) had an inhibition of in vitro translation of GFP (PureExpress Delta RF123 kit with the kit's own ribosomes, RF1 added), GFP fluorescence relative to no PrAMP; peptide 0.05, 5 and 50 µmol/L of 77%. Further, the figures for the Ki in [11] and in series [12] were 2 nM and 219 nM, respectively.
In the case of GNNRPIYIPRPRPPHPRPIRV-OH, the fragment found entry in [13] was “Api805 1-16 (GNNRPIYIPRPRPPHP-OH), major”; in [14], “Api805 1-16 (GNNRPIYIPRPRPPHP-OH), major”.
As to gu-ONNRPVYIPRPRPPHPRL-OH, the fragment found entry in series [13] is “Api137 1-17 (Gu-ONNRPVYIPRPRPPHPR-OH), major”; in series [14] it was “Api137 1-17 (Gu-ONNRPVYIPRPRPPHPR-OH), major”.
In [15], GNNRPIYIPRPRPPHPRPIRV-OH [Api805] displayed an inhibition of in vitro translation of GFP (PureExpress Delta RF123 kit with the kit's own ribosomes, RF1 added), GFP fluorescence relative to no PrAMP; peptide 0.05, 5 and 50 µmol/L of 52%; an inhibition of in vitro translation of GFP (PureExpress Delta RF123 kit with the kit's own ribosomes, no release factor), GFP fluorescence relative to no PrAMP; peptide 0.05, 5 and 50 µmol/L of 38%. For the same molecule, the Ki in series [11] was 1070 nM. In series [12], the Ki was 489 nM.
